Consider five molecules from paper PMC10799709, “Characterization of a New Immunosuppressive and Antimicrobial Peptide, DRS-DA2, Isolated from the Mexican Frog, Pachymedusa dacnicolor” (International Journal of Inflammation, 2024).

In brackets after ≈: the same amount, converted by molar mass. Peptide text beside a SMILES is read from it.

The test system of series [1] is Acinetobacter johnsonii (carbapenemase). Kind of series: Antibacterial activity on skin multiresistant bacteria. The series is classed as cell-based. As to the method: (§1) The minimum inhibitory concentration (MIC) was determined by a liquid test in 96-well microplates as previously described. 100 µL of the sample to be tested was distributed in triplicate to obtain a range of final concentrations from 100 to 0.2 µM in the wells. 90 µL of bacterial suspension (5 × 10^5 CFU/mL for Gram-negative bacteria and 5 × 10^5 CFU/mL for Gram-positive strains in Mueller–Hinton broth) were added to each well [14]. The microtiter plates were incubated at 37°C overnight. The optical density of the wells was measured at […], and the results were interpreted by calculating the percentage of growth in each well according to the formula: % growth = (OD600 well − OD600 T0)/(OD600 of T100 − OD600 T0) ∗ 100, where OD600 T100 = DO600 growth control (bacterial suspension without the test sample, 100% growth), OD600 T0 = OD600 of sterility control (culture medium + […] 10 µL formaldehyde, 0% growth) well, and OD600 = OD600 of the well which was desired to calculate the percentage of growth (+ bacterial suspension test sample). MIC is the minimum concentration of the peptide that inhibits bacterial growth after incubation at 37°C for 20 hours.

Series [2] concerns S. epidermidis ST20140436 (MecA+). Described as above. Type of series: cell-based. The settings on record: Staphylococcus epidermidis. As to the method: as §1
The subject of series [3] is S. aureus ATCC 700699 (MecA+). The description is as above. Type of series: cell-based. The settings on record: Staphylococcus aureus, ATCC700699. As to the method:
as §1

The subject of series [4] is Propionibacterium acnes (clinical isolate), second listed. The series is described as above. To be noted: Cutibacterium acnes, second listed (r8). Type of series: cell-based. As to the method: as §1
Series [5] has as its system Propionibacterium acnes (clinical isolate), first listed. Described as above. To be noted: Cutibacterium acnes, first listed (r7). The series is classed as cell-based. As to the method: as §1
Series [6] relates to Jurkat E6-1 cells. As to the kind of experiment: Apoptosis/necrosis assay (annexin V / eFluor 780). Type of series: cell-based. To be noted: Jurkat E6-1, 5 µM, 2 hours. As to the method:
Induction of apoptosis or necrosis by the peptides was tested by incubating 5.10^5 Jurkat E6-1 cells in 200 µl RPMI containing 10% FBS and […] with the peptides at 5 µM for 2 hours at 37°C, 5% CO2. A positive control was obtained by exposing the cells to UV light for 10 min (1 mJ/cm^2, Stratagene UV Stratalinker 2400), before incubating them for 4 hours at 37°C, 5% CO2, RPMI 10% FBS. Cells were then washed, centrifuged, resuspended, and incubated 30 min at 4°C in the dark with Viability dye 780 (BioLegend). After washing the cells, Annexin-V-FITC in annexin-binding buffer was added, and the cells were incubated for 15 minutes at room temperature in the dark. The cells were fixed with PFA at a final dilution of 2% before being analyzed by FACSCanto flow cytometry.

For series [7], the system named is Gram-positive and Gram-negative strains. Kind of series: Antibacterial properties on a series of strains. Type of series: cell-based. As to the method:
as §1
The minimum bactericidal concentration (MBC) is defined as the minimum concentration of the peptide killing 99.9% of bacteria after incubation at 37°C for 20 hours. […]

The test system of series [8] is mouse leukocytes. As to the kind of experiment: Cytotoxic assay on mouse leukocytes (viability dye, flow cytometry). Type of series: cell-based. To be noted: 2 h, various concentrations. From the text:
(§2) Human leukocytes were provided by the « Banco de Sangre del Hospital Regional del IMSS » and the Centro Estatal de la Transfusión Sanguínea in Cuernavaca, Morelos, Mexico. Institutional committees approved the acquisition and isolation of human peripheral blood leukocytes. Human leukocytes and erythrocytes were obtained as previously described. Mouse bone marrow cells (MBMCs) and erythrocytes were obtained from C57BL/6 or Balb/c mice. Mouse epithelial cells were isolated from C57Bl/6 mice, and human epithelial cells were recovered from surgery residues. In brief, intestinal tissues were minced and digested in 450-U/mL collagenase I, 125-U/mL collagenase XI, 60-U/mL hyaluronidase, and 60-U/mL DNAse for 1 hour before gradient density centrifugation on Histopaque-1083 (Sigma-Aldrich, St. Louis, MO). […]
(§3) 5.10^5 mouse or human leukocytes or primary epithelial cells, A549 or Jurkat E6-1 cells, were incubated in 100 µl RPMI or DMEM containing 0.5% BSA and […] with the peptides at different concentrations for 2 hours at 37°C, 5% CO2. […] Viability of leukocytes and Jurkat cells was determined by adding a viability dye (eFluor 780) and counted by FacsCanto flow cytometry with a predetermined number of beads (Polybead, Carboxylate Microspheres, Polysciences, Inc., Le Perray-en-Yvelines, France) added to the samples. […] Data were analyzed with FlowJo.
For orientation: In flow cytometry, cells or beads pass a laser one at a time.

Series [9] concerns human leukocytes. Kind of series: Cytotoxic assay on human leukocytes (viability dye, flow cytometry). Type of series: cell-based. The settings on record: 2 h, various concentrations.
Excerpt: as §2, §3

The test system of series [10] is C57BL/6 mice. As to the kind of experiment: Thioglycolate-induced peritoneal inflammation (noninfectious peritonitis). Type of series: in vivo, mouse. To be noted: thioglycolate 3% i.p., 15 µg/injection i.p. at 14, 19 and 24 h, flow cytometry. As to the method: C57BL/6 mice were injected intraperitoneally with 1 mL 3% (wt/vol) thioglycolate (Sigma-Aldrich, l'Ile d'Abeau, France) dissolved in sterile NaCl and then 14, 19, and 24 hours later injected i.p. with DRS-DA2N or DRS-DA2NEQ (15 µg/injection). NaCl was used as a negative control. Twelve hours after the last injection, mice were killed, and 3 mL of cold PBS was injected i.p. to harvest peritoneal cells, which were then stained with anti-mouse Ly6G-PE, anti-mouse NK1.1-PE, anti-mouse CD11b-PerCP, and anti-mouse F4/80-APC (BD Biosciences, Rungis, France). Blood and bone marrow were also collected and stained with the same antibodies. Cells and beads were then counted by FACSCalibur flow cytometry, and data were analyzed with FlowJo. Cells being CD11b^hiLy6G^−NK1.1^− are considered to be monocytes (Mo), CD11b^hiLy6G^−NK1.1^− F4/80^+ macrophages (MΦ), and CD11b^hiLy6G^+NK1.1^− neutrophils (PMN).

Series [11] is described as follows: Circular dichroism, percentage of helicity. The series is classed as physicochemical. To be noted: POPE: POPG (75 : 25) LUVs, peptide/lipid 1/50, 10 mM Tris pH 7.4. As to the method:
The CD spectra of the peptides were recorded as previously described. Measurements were carried out in 10 mM Tris buffer at pH 7.4 and in the presence of POPC, POPG, and POPG-POPC (25 : 75) LUVs or POPG-POPE (25 : 75) LUVS to mimic E. coli inner membrane composition at a peptide/lipid molar ratio of 1/50. Dichroic spectra were corrected by subtracting the background obtained for each peptide-free solution. An analysis of CD spectra was conducted after smoothing, and conversion to molar ellipticity was calculated as follows: […], where θobs is the observed ellipticity, n is the number of bonds, c is the peptide concentration in mol. L^−1, and l is the path length in cm.

A short description of series [12]: ANTS/DPX leakage assay. To be noted: POPE/POPG (75 : 25) LUVs, 0.5 mM lipid, from Figure 10(c). As to the method:
The lipids 1-palmitoyl-2-oleoyl-sn-glycero-3-phospho-(1′-rac-glycerol) (POPG) and 1-palmitoyl-2-oleoyl-sn-glycero-3-phosphoethanolamine (POPE) were obtained from Avanti Polar Lipids, Inc., and used without further purification. Desired mixtures of phospholipids were first dried in glass tubes under nitrogen and then maintained under reduced pressure for at least 60 min. Lipid films were subsequently hydrated in PBS to yield a lipid concentration. The resulting dispersions were subjected to 5 freeze-thaw cycles by alternately placing the sample vial in a liquid nitrogen bath and a warm water bath (40°C). […]
The vesicles of POPE/POPG (75/25) at 25 mM concentration were obtained as previously described and suspended in a solution of 12.5 mM ANTS and 45 mM DPX in 10 mM HEPES. […] Final lipid concentration was measured by the method of Rouser.
To measure the leakage of DPX, the vesicles were diluted to a concentration of 0.5 mM lipid. […] ANTS fluorescence was monitored using a fluorimeter (excitation = 350 nm; emission = 530 nm) or a fluorescence plate reader (excitation filter wavelength/bandpass = 340/11; emission 530/25.
Fractional leakage was calculated as (Fsample − Finitial)/(Flysed−Finitial).

Series [13] concerns E. coli ATCC8739. Kind of series: Time-kill assay. The series is classed as cell-based. To be noted: E. coli ATCC8739, peptide at its MIC concentration, 37°C, CFU counting. As to the method: Time-killing experiments were achieved according to [18, 19] with minor modifications. The peptide's concentration was 1 × MIC and 2 × MIC. At the time points of 15, 30, 45, and 60 min and after homogenization, suspensions were diluted in 10 mM sodium phosphate buffer (pH 6.8) and spread onto MH agar plates. After overnight incubation at room temperature, CFUs were counted.

As to `CC(C)(O/N=C(\C(=O)N[C@@H]1C(=O)N2C(C(=O)[O-])=C(C[n+]3ccccc3)CS[C@H]12)c1csc(N)n1)C(=O)O` [ceftazidime], the MIC (in general, the lowest concentration found to suppress growth) in [1] is greater than 29.3 µM.

Regarding `CC1(C)S[C@@H]2[C@H](NC(=O)[C@H](N)c3ccc(O)cc3)C(=O)N2[C@H]1C(=O)O` [amoxicillin], the minimal inhibitory concentration (MIC) in series [2] and in series [3] was greater than 43.8 µM each time.

With `C[C@H]1c2cccc(O)c2C(=O)C2=C(O)[C@]3(O)C(=O)C(C(N)=O)=C(O)[C@@H](N(C)C)[C@@H]3[C@@H](O)[C@@H]21` [doxycycline], the values for the MIC in series [4] and in series [5] were 0.27 µM (≈ 0.12 µg/mL) and 0.13 µM (≈ 0.0578 µg/mL), respectively.

As for `CSCC[C@H](NC(=O)[C@H](C)NC(=O)[C@H](C)NC(=O)[C@H](CCCCN)NC(=O)[C@@H](NC(=O)[C@H](CC(C)C)NC(=O)[C@@H](NC(=O)[C@H](CC(N)=O)NC(=O)CNC(=O)[C@@H](N)CCCCN)C(C)C)C(C)C)C(=O)N[C@@H](CC(C)C)C(=O)N[C@H](C(=O)N[C@@H](CCCCN)C(=O)N[C@H](C(=O)N[C@@H](CC(C)C)C(=O)N[C@@H](C)C(=O)N[C@@H](CCCCN)C(=O)N[C@@H](CC(N)=O)C(=O)N[C@@H](CCCCN)C(=O)NCC(=O)N[C@H](C(=O)N[C@@H](CCC(N)=O)C(=O)N[C@@H](CC(N)=O)C(=O)N[C@@H](C)C(=O)N[C@@H](CC(N)=O)C(=O)N[C@@H](C)C(=O)N[C@@H](CC(C)C)C(=O)N[C@H](C(=O)N[C@@H](Cc1c[nH]c2ccccc12)C(=O)O)[C@@H](C)O)C(C)C)C(C)C)[C@@H](C)O` [Scr] (H-KGNVLVKAAMLTKVLAKNKGVQNANALTW-OH; N-terminus and C-terminus assumed), in [6], the cell death was less than 4% and the “cells alive (A−V−)” value was “more than 96%”. In series [7], the bacterial activity entry is “did not exhibit any bacterial activity”. Also, the “induction of death of leukocyte populations” value in series [8] is listed as “did not induce the death”. Further, the “induction of death of leukocyte populations” value in series [9] is “did not induce the death”. Moreover, in series [10], the “egress of inflammatory cells from the bone marrow and increase in blood after induction of peritonitis (systemic effect)” value was “conserved”. Also, in series [11], the “percentage of helicity (CD)” value is listed as “remained unstructured”.

Regarding omiganan, the “LIC50 (peptide concentration required to induce 50% leakage)” value in [12] is “No leakage”. Also, in series [13], the “incubation time after which all the bacteria were killed” value is recorded as “needed a much longer time to be active”.
